Data published in patent US20190177440A1, “COMPOUND OR SALT THEREOF, ANTI-INFLAMMATORY AGENT, ANTI-CANCER AGENT AGAINST LUNG CANCER, METHOD OF PRODUCING COMPOUND OR SALTS THEREOF, METHOD OF TREATING INFLAMMATORY DISEASES AND METHOD OF TREATING LUNG CANCER” (TFK CO., LTD., priority 2016, published 2019).

How the values were obtained:
TNF-α = TNF-α production in RAW264.7 mouse macrophage cells (Example 6); format: cell-based; conditions: final 0.01, 0.1 and 1 ng/mL, no LPSp, FIG. 6
Experimental: In the same manner as “(1) Preparation of test solution” in Example 3, a solution having a concentration of the purified product of 20,000 ng/mL was prepared, and the solution was serially diluted with a culture solution having the following composition, thereby obtaining a total of three test solutions having a concentration of 2 ng/mL, 0.2 ng/mL, and 0.02 ng/mL. Since the three test solutions are diluted twice when added to the cells, the final concentrations of the purified products are 1 ng/mL, 0.1 ng/mL, and 0.01 ng/mL, respectively.
The culture medium was added to mouse macrophage cells (RAW264.7, ATCC) to prepare solutions at concentrations of 4×10^5 cells/mL. The solutions were seeded in 96-well flat-bottomed plates in 100 μL portions, i.e., 4×10^4 cells/100 μL/well. After seeding, the cells were incubated at 37° C. in 5% CO2 for 2 hours until they adhered to the bottoms of the wells and extended. Next, 100 μL of the test solution was added to each well. After adding the test solution, the cells were incubated at 37° C. in a 5% CO2 for 24 hours. After the incubation, the culture supernatant of the wells was removed, 150 μl of the above-mentioned culture solution was newly added (hereinafter, this step is referred to as a “culture solution adding step”), and the wells were incubated at 37° C. in a 5% CO2 for 24 hours.
After incubation, 50 μl of culture supernatant from each well was collected, transferred to each well of new 96-well flat-bottom plates, and absorbance was measured using mouse TNF a assay kit (manufactured by Biolegend) and converted to TNF-α concentrations.

human TLR4 = molecular target: T1, human TLR4 (Homo sapiens, UniProt O00206+Q9Y6Y9); assay: IL-8 production in Human Embryonic Kidney cells transfected with human TLR4 gene (Example 3); format: cell-based; conditions: HEK cells with human TLR4 gene; final 0.1-10,000 ng/mL; 24 hours; ELISA; FIG. 3
T1 construct: host or cells: Human Embryonic Kidney cells
T1 sequence (O00206 24-839): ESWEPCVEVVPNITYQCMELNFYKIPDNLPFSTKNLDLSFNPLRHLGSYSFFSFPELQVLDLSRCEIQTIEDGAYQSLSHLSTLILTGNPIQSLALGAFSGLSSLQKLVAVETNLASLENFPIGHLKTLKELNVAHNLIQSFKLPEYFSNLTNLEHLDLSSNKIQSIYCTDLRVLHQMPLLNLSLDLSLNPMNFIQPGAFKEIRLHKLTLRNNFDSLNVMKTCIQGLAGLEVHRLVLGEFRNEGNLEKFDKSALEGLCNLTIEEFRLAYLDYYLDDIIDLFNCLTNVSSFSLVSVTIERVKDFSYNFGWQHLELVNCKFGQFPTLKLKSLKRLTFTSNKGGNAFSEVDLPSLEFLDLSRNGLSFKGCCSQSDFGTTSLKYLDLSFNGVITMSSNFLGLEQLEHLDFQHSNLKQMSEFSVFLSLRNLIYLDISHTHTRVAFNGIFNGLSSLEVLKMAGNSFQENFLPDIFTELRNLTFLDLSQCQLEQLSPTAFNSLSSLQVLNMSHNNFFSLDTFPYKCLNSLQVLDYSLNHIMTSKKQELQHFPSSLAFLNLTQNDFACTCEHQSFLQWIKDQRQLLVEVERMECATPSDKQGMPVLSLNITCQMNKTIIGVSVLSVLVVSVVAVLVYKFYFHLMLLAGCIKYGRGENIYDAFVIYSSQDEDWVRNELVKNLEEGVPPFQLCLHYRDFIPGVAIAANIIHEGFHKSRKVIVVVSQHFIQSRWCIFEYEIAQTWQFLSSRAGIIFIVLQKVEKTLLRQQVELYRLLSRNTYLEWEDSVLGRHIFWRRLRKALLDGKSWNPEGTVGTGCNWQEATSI
T1 sequence (Q9Y6Y9 17-160 limits assumed): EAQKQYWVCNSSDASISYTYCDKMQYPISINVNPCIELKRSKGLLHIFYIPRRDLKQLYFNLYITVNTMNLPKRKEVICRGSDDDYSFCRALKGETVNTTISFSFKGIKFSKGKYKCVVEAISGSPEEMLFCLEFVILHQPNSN
Experimental: The purified product obtained in Example 1 (the mixture of the compound represented by Formula (A1), the compound represented by Formula (B1), the compound represented by Formula (A2), and the compound represented by Formula (B2)) was dissolved in water for injection to a concentration of 2 mg/mL and stored at 4° C., and the solution was heated at 37° C. for 5 minutes and sonicated at 37° C. for 1 minute. 10 μL of the sonicated solution was added to 990 μL of the culture solution having the following composition to thoroughly mix, and a solution having a concentration of 20,000 ng/mL was prepared, which was serially diluted using the culture solution to obtain six test solutions having concentrations of 2,000 ng/mL, 200 ng/mL, 20 ng/mL, 2 ng/mL, and 0.2 ng/mL. Since the six test solutions are diluted twice when added to the cells, the final concentrations of the purified products are 10,000 ng/mL, 1,000 ng/mL, 100 ng/mL, 10 ng/mL, 1 ng/mL, and 0.1 ng/mL, respectively.
The culture medium was added to Human Embryonic Kidney cells (manufactured by InvivoGen) into which human TLR4 gene had been transfected, and solution were prepared in which the concentration of the cell was 4×10^5 cells/mL. The solution was seeded in 96-well flat-bottomed plates in 100 μL portions, i.e., 4×10^4 cells/100 μL/well. After seeding, the culture was cultured at 37° C. in a 5% CO2 for 24 hours, then the culture supernatant was removed, and 100 μL of the above-described culture medium was added to each well. Next, 100 μL of the test solution was added to each well. After adding the test solution, the culture was incubated at 37° C. in a 5% CO2 for 24 hours.
Culture supernatants from the wells were collected and the concentrations of Interleukin-8 (IL-8) were measured using Human IL-8 ELISA MAX (registered trademark) Standard (Biolegend).

PPARγ gene = PPARγ gene expression in THP-1 cells by CAGE method (Example 8-2); format: cell-based, human; conditions: 3 hours
Experimental: The same culture medium as in Example 8-1(2) was added to the THP-1 cells to prepare solutions in which the concentrations of the cells were 5×10^5 cells/mL. The expression level of the PPARγ gene in this solution was measured by the CAGE method and found to be 3.97 TPM (Tags Per Million). After the measurement, the cell solution was divided into the following four groups. That is, there are four groups: a group in which a solution of the purified product is added to the cell solution so as to have a final concentration of 1 μg/mL (Example 8-2A), a group in which a solution of the purified product is added to the cell solution so as to have a final concentration of 10 μg/mL (Example 8-2B), a group in which nothing is added to the cell solution (Comparative Example 8-2A), and a group in which a LPSp solution is added to the cell solution so as to have a final concentration of 100 ng/mL (Comparative Example 8-2B). After culturing the four groups for 3 hours, the expression level of the PPARγ gene was measured by the CAGE method. FIG. 27 is a graph showing the expression levels of the PPARγ genes. In FIG. 27, the horizontal axis represents the incubation time, and the vertical axis represents the expression amount (TPM) of the PPARγ gene. […] In contrast, in Comparative Example 8-2A, the expression level of the PPARγ gene decreased slightly from 3.97 TPM to 3.89 TPM during 3 hours, and in Comparative Example 8-2B, the expression level of the PPARγ gene increased from 3.97 TPM to 4.31 TPM during 3 hours, but the degree of the increase was not significant.

CCCCCC/C=C/CCCCCC(=O)OC(CCCCCCCCCCC)CC(=O)NC1C(OCC2OC(OP(=O)(O)O)C(NC(=O)CC(=O)CCCCCCCCCCC)C(OC(=O)CC(O)CCCCCCC)C2O)OC(COC2(C(=O)O)CC(OC3(C(=O)O)CC(O)C(OC4OC(C(=O)O)C(OC5OC(CO)C(O)C(O)C5O)C(O)C4O)C(C(O)CO)O3)C(OC3OC(COP(=O)(O)O)C(OC4OC(CO)C(O)C(O)C4O)C(O)C3O)C(C(O)CO)O2)C(OP(=O)(O)O)C1OC(=O)CC(O)CCCCCCC (stereo not drawn) [Formula (B1)]
Equivalent results were obtained: TNF-α concentration in culture supernatant (TNF-α) | concentration of IL-8 in culture supernatant (human TLR4) | effect on expression of the PPARγ gene (in words) (PPARγ gene)

CCCCCC/C=C/CCCCCC(=O)OC(CCCCCCCCCCC)CC(=O)NC1C(OCC2OC(OP(=O)(O)O)C(NC(=O)CC(=O)CCCCCCCCCCC)C(OC(=O)CC(O)CCCCCCC)C2O)OC(COC2(C(=O)O)CC(OC3(C(=O)O)CC(OC4OC(C(=O)O)C(OC5OC(CO)C(O)C(O)C5O)C(O)C4O)C(O)C(C(O)CO)O3)C(OC3OC(COP(=O)(O)O)C(OC4OC(CO)C(O)C(O)C4O)C(O)C3O)C(C(O)CO)O2)C(OP(=O)(O)O)C1OC(=O)CC(O)CCCCCCC (stereo not drawn) [Formula (A1)]
Equivalent results were obtained: TNF-α concentration in culture supernatant (TNF-α) | concentration of IL-8 in culture supernatant (human TLR4) | effect on expression of the PPARγ gene (in words) (PPARγ gene)

CCCCCC/C=C/CCCCCC(=O)OC(CCCCCCCCCCC)CC(=O)NC1C(OCC2OC(OP(=O)(O)O)C(NC(=O)CC(=O)CCCCCCCCCCC)C(OC(=O)CC(O)CCCCCCC)C2O)OC(COC2(C(=O)O)CC(OC3(C(=O)O)CC(O)C(OC4OC(C(=O)O)C(OC5OC(CO)C(O)C(O)C5O)C(O)C4O)C(C(O)CO)O3)C(OC3OC(CO)C(O)C(O)C3O)C(C(O)CO)O2)C(OP(=O)(O)O)C1OC(=O)CC(O)CCCCCCC (stereo not drawn) [Formula (B2)]
Equivalent results were obtained: TNF-α concentration in culture supernatant (TNF-α) | concentration of IL-8 in culture supernatant (human TLR4) | effect on expression of the PPARγ gene (in words) (PPARγ gene)

CCCCCC/C=C/CCCCCC(=O)OC(CCCCCCCCCCC)CC(=O)NC1C(OCC2OC(OP(=O)(O)O)C(NC(=O)CC(=O)CCCCCCCCCCC)C(OC(=O)CC(O)CCCCCCC)C2O)OC(COC2(C(=O)O)CC(OC3(C(=O)O)CC(OC4OC(C(=O)O)C(OC5OC(CO)C(O)C(O)C5O)C(O)C4O)C(O)C(C(O)CO)O3)C(OC3OC(CO)C(O)C(O)C3O)C(C(O)CO)O2)C(OP(=O)(O)O)C1OC(=O)CC(O)CCCCCCC (stereo not drawn) [Formula (A2)]
Equivalent results were obtained: TNF-α concentration in culture supernatant (TNF-α) | concentration of IL-8 in culture supernatant (human TLR4) | effect on expression of the PPARγ gene (in words) (PPARγ gene)
